Experimental findings from patent publication US8680073B2, “Stable hyaluronan/steroid formulation” (Genzyme Corporation, priority 2009, dated 2014) are described below.

What all share (format): physicochemical
A short description of data set [1]: Rheology of HA viscosupplement/steroid formulations by heat treatment. The settings on record: formulations of HARC with the steroid, compared to control without steroid. The method, then: (§1) We conducted various experiments in which a number of steroids, both soluble and insoluble, were mixed with HA-based viscosupplements, and the heat stability of the HA/steroid formulations were evaluated at 121° C. for 30 min (simulated autoclave conditions), to achieve a bioburden inactivation of approximate 30 Fo, where Fo is the total heat applied during the cycle to achieve a desired probable inactivation ratio). Formulations were also evaluated after heating at 80° C. for 24 hours (simulated two year room temperature shelf-life).
Specifically we tested the TAH mixtures with SYNVISC® and hylastan products of Genzyme Corporation, Framingham Mass.^1 The rheological properties of the heat treated SYNVISC®/steroid and hylastan SGL-80/steroid formulations plus their controls are listed in Tables 1a and 1b, respectively, set out below. 1 Synvisc is a gel-like mixture that is made up of hylan A fluid, hylan B gel, and salt water. Hylan A and hylan B are made from a substance called hyaluronan (also known as sodium hyaluronate) from chicken combs.

The nature of data set [2]: Osmolality of HA viscosupplement/steroid formulations by heat treatment. As to the method: as §1
(§2) Compositions retained suitable pH and osmolarity.

The nature of data set [3]: pH of HA viscosupplement/steroid formulations by heat treatment. As to the method: as §1, §2

`CC(C)(C)CC(=O)OCC(=O)[C@@]12OC(C)(C)O[C@@H]1C[C@H]1[C@@H]3CCC4=CC(=O)C=C[C@]4(C)[C@@]3(F)[C@@H](O)C[C@@]12C` [TAH, triamcinolone hexacetonide]: the “Effect of the steroid on HARC properties after heat treatment” value in data set [1] is “behaved to comparably to control formulations having no steroid”. For the same molecule, the “Change in osmolality after mixing into the HA-based viscosupplements” value in data set [2] was “no significant change”. The “Change in pH after mixing into the HA-based viscosupplements” value in data set [3] was “no significant change”.
With `CC(=O)OCC(=O)[C@@]1(O)[C@@H](C)C[C@H]2[C@@H]3CCC4=CC(=O)C=C[C@]4(C)[C@@]3(F)[C@@H](O)C[C@@]21C` [betamethasone acetate], the “Effect of the steroid on HARC properties after heat treatment” value in data set [1] is “interacted with HARC”.
Still for that read-out and setting: with `C[C@H]1C[C@H]2[C@@H]3CCC4=CC(=O)C=C[C@]4(C)[C@@]3(F)[C@@H](O)C[C@]2(C)[C@@]1(O)C(=O)COP(=O)(O)O` [betamethasone phosphate] the entry was “exacerbated degradation of HARC properties after heat treatment”.
